From PMC6373292 (Pharmaceutical Research, 2019)
Entries after “also recorded” stand apart in the source; their conditions may differ.

How the values were obtained:
[1] = system: porcine subcutaneous arteries; test: Ex vivo vasorelaxation of U46619-preconstricted arteries (wire myograph); parameters: species or system pig; conditions: isolated porcine subcutaneous arteries preconstricted with U46619 (1 μM); for Effect on vascular tone (vasorelaxation): niacinamide at 200 mM, 1-methyl-niacinamide cumulative concentrations, two animals
Protocol: Vessels were cut into 1.5 mm cylindrical segments, threaded onto two 40 μm diameter stainless steel wires and mounted on a Mulvany-Halpern myograph (Danish Myograph Technology, A/S). […] Contractile force was recorded via a PowerLab unit and Labchart software (AD Instruments). Vessels were pre-stretched in calcium-free PSS to a lumen diameter of 0.9 × L100, where L100 is an estimate of the diameter of the vessel under a passive transmural pressure of 100 mmHg. This was performed using the normalization module in LabChart7.

skin perfusion [2] = test: Laser speckle contrast analysis (LASCA) of skin perfusion in pigs; type: in vivo, pig; conditions: anesthetized pigs, intradermal injection in neck, niacinamide 170 mM, 1-methyl-niacinamide 170 mM, prostaglandin E1 10 μg/ml, 0–15 min, n=4
Protocol: Formulations of prostaglandin E1 (10 μg/ml), niacinamide (170 mM) or saline were injected intradermally in the neck area of anesthetized pigs. A PeriCam PSI system (Perimed, Sweden) was used to record one image per second for approximately 15 min. Perfusion units per min were compared using one-way ANOVA.
Niacinamide increases subcutaneous blood flow in pigs
Video: Representative LASCA perfusion experiment.
LASCA images were recorded following intradermal injection of saline, prostaglandin E1 and niacinamide formulations into the neck area of anesthetized pigs. Saline (170 mM NaCl, 10 mM phosphate, pH 7.4) was injected into region 1 (blue) and 6 (black), 10 µg/ml prostaglandin E1 (170 mM NaCl, 10 mM phosphate, pH 7.4) was injected into region 2 (red), 170 mM niacinamide (85 mM NaCl, 10 mM phosphate, pH 7.4) was […]
was necessary). Compound x (region 4, dark red) was an additional compound studied for vasodilation but is not included in the present analysis.
(1 picture or pasted object on this page, not shown here)

[3] = system: regional subcutaneous blood flow; test: Xenon-133 washout after injection into the neck of pigs; type: in vivo, pig; conditions: vehicle without insulin aspart, niacinamide 170 mM (n=21), prostaglandin E1 4 μg/ml (n=8), mean (±SD), saline –0.71
Protocol: For each experiment, an insulin aspart containing vehicle was injected on one side of a pig, while the same vehicle without insulin aspart was injected into the other side. Prostaglandin E1 was included as a positive control. A gamma sensor was mounted over each injection site to measure the decay in Xe-133 signal. […] Regression line slopes in the 0–15 min interval were compared using one-way analysis of variance (ANOVA).

skin perfusion [4] = test: Laser Doppler imaging (LDI) of skin perfusion in pigs; type: in vivo, pig; conditions: anesthetized pigs, subcutaneous injection at 3 mm depth, niacinamide 170 mM, prostaglandin E1 10 μg/ml, baseline corrected, n=4
Protocol: LDI (moorLDI2-IR, Moor Instruments, UK) was used to record a series of images (approximately one image per 3.5 min for approximately 30 min) following a protocol in anesthetized pigs similar to the one used for LASCA. Due to the increased skin penetration depth of the LDI system, subcutaneous injections were performed at a 3 mm depth using a 32G needle. Injections were performed in areas that could be scanned in the same image.

[5] = Disappearance of niacinamide and 1-methyl-niacinamide from subcutaneous injection depots in pigs (tissue sampling, LC-MS/MS); conditions: 170 mM, 50 μl, LC-MS/MS of tissue homogenate, n=9
Protocol: Pigs (70–90 kg) were anesthetized using Zoletil mixture (1 mg/10 kg; Virbac, Denmark) with intravenous supplement of propolipid (Fresenius Kabi, Sweden). […] Tissue samples measuring ~2 x 2 cm were excised at 0 min (acute), 2, 5, 15 or 60 min after injection and immediately frozen in 2-methyl-butane. […] Following euthanasia by overdose of pentobarbital (Lundbeck, Denmark), tissue samples measuring ~10 x 10 cm were excised and injected to obtain ex vivo 0 min (acute) and 60 min depots.
Tissue samples were cut into smaller blocks, thawed and diluted with phosphate buffer (180 mM; pH 7.4) at a ratio of 3 ml to 1 g of tissue. Tissue was homogenized with two cycles (one cycle consisting of 10 sec homogenization, 60 sec pause, 10 sec homogenization) at 8800 rpm (Precellys Evolution homogenizer, Bertin Instruments, France) or until the sample was considered homogenized.
Protein was precipitated from the tissue homogenate by adding three volumes of acetonitrile. Samples were centrifuged for 30 min at 4°C and the supernatants analyzed on a QTRAP® Triple Quadrupole coupled with an Acquity liquid chromatography system (Waters, USA).

SMILES	Effect on vascular tone (vasorelaxation) [1]	Skin perfusion by LASCA compared with saline (skin perfusion [2])	EC50 ([1]; Sus scrofa, sc, cumulative 1 μM–200 mM, PSS 37°C pH 7.4, six animals) [mM]	Xe-133 washout regression line slope, 0–15 min interval [3]	Skin perfusion by LDI compared with saline (skin perfusion [4])	Amount remaining in subcutaneous depot 60 min post-injection [5]
C[n+]1cccc(C(N)=O)c1 [1-methyl-niacinamide]	no substantial effect on vascular tone; also recorded: vasorelaxation was not detected	did not increase the LASCA signal	–	–	–	–
NC(=O)c1cccnc1 [niacinamide]	maximal vasorelaxation	intermediate increase	11.3	–1.24 % per min	increased skin perfusion	decreased to amounts comparable to the blank control
CCCCC[C@H](O)/C=C/[C@H]1[C@H](O)CC(=O)[C@@H]1CCCCCCC(=O)O [prostaglandin E1]	–	clear increase in skin perfusion	–	–2.47 % per min	increased skin perfusion	–
